The values below come from BindingDB's records for patent US20240025893 (Asahi Kasei Pharma, 2024).

Molecules are shown by their SMILES.

This assay concerns the target T1, Interleukin-1 receptor-associated kinase 4 (Homo sapiens, UniProt Q9NWZ3).
T1 sequence (Q9NWZ3 whole entry): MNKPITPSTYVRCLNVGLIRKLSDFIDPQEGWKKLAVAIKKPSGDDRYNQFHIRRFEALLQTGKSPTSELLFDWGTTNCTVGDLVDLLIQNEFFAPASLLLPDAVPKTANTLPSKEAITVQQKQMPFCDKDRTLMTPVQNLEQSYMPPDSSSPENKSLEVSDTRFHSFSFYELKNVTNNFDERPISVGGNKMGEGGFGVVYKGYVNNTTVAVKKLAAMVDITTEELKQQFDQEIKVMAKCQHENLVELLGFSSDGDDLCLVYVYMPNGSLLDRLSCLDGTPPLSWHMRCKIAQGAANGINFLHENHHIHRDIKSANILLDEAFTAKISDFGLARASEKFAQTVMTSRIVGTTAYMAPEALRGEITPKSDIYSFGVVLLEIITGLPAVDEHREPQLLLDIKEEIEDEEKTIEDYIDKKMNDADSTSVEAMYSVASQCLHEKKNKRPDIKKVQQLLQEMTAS
In words: Measurement of Human IRAK-4 Inhibitory Activity. The protocol: For the measurement of the activity of the human IRAK-4 (Invitrogen, Cat. PV3362), phosphorylation of the IRAK-4 peptide substrate (biotin-KKKKRFSFKKSFKC) by the enzyme in the presence of 10 μM ATP (Sigma-Aldrich, Cat. A7699) was measured by the TR-FRET method. The enzymatic reaction was performed in a reaction buffer containing 50 mM HEPES (pH 7.2), 1 mM DTT, 0.1 mM Na3VO4, 5 mM MgCl2, 1 mM MnCl2, and 0.1% bovine serum albumin. For the measurement of the IRAK-4 inhibitory activity, a test compound was added to the reaction buffer containing 1 nM IRAK-4, 0.5 μM peptide substrate, and 10 μM ATP, and the mixture was incubated at 23° C. for 30 minutes. Then, a detection solution containing an antibody labeled with europium cryptate (0.3 μg/mL, the antibody was prepared by using the IRAK-4 peptide substrate as the antigen), streptavidin-XL665 (2 μg/mL, CisBio, Cat. 610SAXLB), 50 mM HEPES (pH 7.2), 0.1% BSA, 120 mM KF, and 66.7 mM EDTA (all the concentrations of the reagents are final concentrations) was added to terminate the reaction, and then the mixture was further incubated at 23° C. for 60 minutes.

In the case of `CO[C@H]1C[C@@H](C(=O)Nc2nc3ccc(-c4cnc(CO[C@H]5CCC[C@@H]5O)nc4)cc3s2)C1` [US20240025893, Example a-01-06], inhibition was half-maximal at 3.29 nM (IC50).
Take `CC(C)(C)OC1CC(C(=O)Nc2cc3cc(-c4cnc(CO[C@H]5CCC[C@@H]5O)nc4)ccn3n2)C1` (some centres not stated) [US20240025893, Examplee-03-01]: the half-inhibitory concentration (IC50) (usually the concentration that gives 50% inhibition) is 1.75 nM.
